# Laboratory results reported in US7419950B2, “Methods of inhibiting ectopic calcification” (University of Washington, priority 1998, dated 2008).
# Key:
# [1] = tested on: human vascular smooth muscle cells (HSMC); assay: Calcium deposition by human vascular smooth muscle cells in high-phosphate calcification medium; assay type: cell-based; details: for calcium deposition into HSMC matrix (in words): high-phosphate calcification medium
# Protocol: (§1) Calcification was assessed by a modification of the method described by Jono et al., Arterioscler. Thromb. Vasc. Biol. 17:1135-1142 (1997) which is incorporated herein by reference. Briefly, the cultures were decalcified with 0.6 N HCl for 24 hours. The calcium content of the HCl supernatant was determined calorimetrically by the o-cresolphthalein complexone method (Calcium Kit, Sigma). After decalcification, the cultures were washed with phosphate-buffered saline (PBS) and solubilized with 0.1 N NaOH/0.1% sodium dodecyl sulfate(SDS). Total protein content was measured with a Bio-Rad Protein Assay Kit (Bio-Rad). The calcium content of the cell layer was normalized to protein content. Phosphorus and calcium concentrations in the culture medium were measured by the phosphomolybdate complex method (Phosphorus Kit, Sigma) and the o-cresolphthalein complexone method (Calcium Kit, Sigma), respectively. Values were expressed as the mean +/− SEM, n=3.
# HSMC were routinely subcultured in growth medium. At confluence, cells were switched to calcification medium (DMEM containing 15% FBS and 1 mM sodium pyruvate in the presence of 2 mM inorganic phosphate supplemented with 100 U/ml penicillin and 100 μg/ml of streptomycin) for up to 14 days. The medium was replaced with fresh medium every 2 days. For time-course experiments, the first day of culture in calcification medium was defined as day 0. Calcium deposition was quantified and assessed histochemically and cytochemically as described above in Example I.
# Osteopontin proteins and functional fragments were assayed for their ability to inhibit ectopic calcification using the HSMC calcification system described in Example III. The osteopontin proteins include full-length human recombinant osteopontin as well as recombinant N-terminal and C-terminal human osteopontin fragments similar to those that would be formed following thrombin cleavage of the native protein, as described by Smith et al., supra (1996). Two N-terminal fragments were used, 10N and 30N, which refer to two differ splice variants of osteopontin. The 30N splice variant contains an additional 14 amino acids, […] (SEQ ID NO: 7), which correspond to exon 5 (amino acids 59-72). The ION fragment contains amino acids 17-58 and 73-160 of native osteopontin, whereas the 30N fragment contains amino acids 17-169. The 10C fragment contains the C-terminal domain of osteopontin, amino acids 170-317.
# Recombinant osteopontin and its functional fragments were assayed for their ability to inhibit ectopic calcification of human smooth muscle cells (HSMC) either prior to or following phosphorylation by casein kinase II. The amount of phosphate incorporated into osteopontin (OPN) and its fragments achieved by casein kinase II phosphorylation is shown in FIG. 5b.
# alkaline phosphatase = biological target: T1, alkaline phosphatase (Bos taurus, UniProt P09487); assay: Cellular alkaline phosphatase activity of BASMC cultures; assay type: cell-based, bovine; details: cells in calcification medium
# T1 construct: cellular proteins were solubilized with 1% Triton X-100 in 0.9% NaCl and centrifuged; endogenous in cells; host or cells: BASMC (bovine aortic smooth muscle cells), detergent lysate supernatant
# T1 sequence (P09487 18-499): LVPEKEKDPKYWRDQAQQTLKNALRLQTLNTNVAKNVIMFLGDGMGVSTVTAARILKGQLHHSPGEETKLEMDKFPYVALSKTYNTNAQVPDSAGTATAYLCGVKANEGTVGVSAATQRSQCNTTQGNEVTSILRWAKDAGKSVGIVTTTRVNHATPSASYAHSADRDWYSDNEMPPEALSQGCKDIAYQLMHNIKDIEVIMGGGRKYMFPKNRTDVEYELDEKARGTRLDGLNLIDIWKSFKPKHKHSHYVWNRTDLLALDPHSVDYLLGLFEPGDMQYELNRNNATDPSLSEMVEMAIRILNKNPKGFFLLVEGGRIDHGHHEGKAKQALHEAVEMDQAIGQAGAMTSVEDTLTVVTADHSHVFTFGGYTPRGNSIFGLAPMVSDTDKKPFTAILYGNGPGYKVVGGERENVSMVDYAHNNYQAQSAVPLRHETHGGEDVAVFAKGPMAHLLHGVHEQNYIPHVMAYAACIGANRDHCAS
# Protocol: For cellular alkaline phosphatase activity measurements, cells were cultured in calcification medium in the presence of various concentrations of osteopontin. Cells were washed three times with PBS and cellular proteins were solubilized with 1% Triton X-100 in 0.9% NaCl and centrifuged. Supernatants were assayed for alkaline phosphatase activity by the method described by Bessey et al., J. Biol. Chem. 164:321-329 (1946), which is incorporated herein by reference. One unit was defined as the activity producing 1 nmol of p-nitrophenol within 1 minute. Protein concentrations were determined with a Bio-Rad protein assay kit (Bio-Rad). The data were normalized to the protein content of the cell layer.
# [2] = tested on: bovine aortic smooth muscle cells (BASMC); assay: Calcium deposition by cultured bovine aortic smooth muscle cells in calcification medium; assay type: cell-based; details: for inhibition of calcium deposition (in words): equimolar concentrations as were effective for osteopontin
# Protocol: In order to examine calcification by cultured BASMC smooth muscle cells, calcification was induced by the method described by Shioi et al., Arterioscler Thromb Vasc Biol., 15:2003-2009 (1995), which is incorporated herein by reference. Briefly, BASMC were cultured in growth medium for 4 days, and then switched to calcification medium (DMEM (high glucose, 4.5 g/L) containing 15% FBS and 10 mM sodium pyruvate in the presence of 10 mM of β-glycerophosphate (unless otherwise stated), 10^-7 M insulin, and 50 μg/ml of ascorbic acid, supplemented with 100 U/ml of penicillin and 100 μg/ml of streptomycin) for 10 days. The medium was replaced with fresh medium twice a week. In the time course experiments, the beginning day of culture in calcification medium was defined as day 0.
# as §1
# To examine the effect of osteopontin on BASMC-mediated calcification in vitro, soluble osteopontin or vehicle alone (0.1 mM sodium citrate) was added to the calcifying BASMC cultures. […] In contrast, vehicle alone had no effect (FIG. 2a).
# To exclude the possibility that contaminants in the osteopontin preparation were responsible for the observed inhibitory effect, immunodepletion experiments were performed. Medium containing 10 μg/ml osteopontin was mixed with […] anti-osteopontin (OP-199) or normal goat IgG, prepared by the method described by Liaw et al., supra (1994) and incubated for 1 hr at room temperature. 250 mg protein-A-sepharose was added and incubated for 1 hr at room temperature. The antibody-protein A sepharose complexes were removed by centrifugation, and the remaining supernatant diluted twenty-fold for use in the calcification studies. Unpaired Student's t test was employed to compare groups and a probability value (p) value less than 0.05 was considered significant.
# BASMC = assay: Phosphorus concentration in BASMC culture medium; assay type: cell-based, bovine; details: BASMC calcification medium
# Protocol: as §1
molecule,measurement,setting,value
O=P(O)(O)O [inorganic phosphate],calcium deposition,"[1]; 2 mM inorganic phosphate, day 9, mean +/-SEM",210.3+/−2.4 μg/mg protein
"c1ccc([C@H]2CN3CCSC3=N2)cc1 [levamisole, reference compound]",alkaline phosphatase activity of BASMC cultures (in words),alkaline phosphatase,dose-dependently inhibited
same,IC50,"[2]; Bos taurus, BASMC cultures in calcification medium, read-out: half-maximal inhibition of calcium deposition",50 µM
same,calcium deposition in BASMC cultures (in words),[2]; levamisole versus vehicle,dose-dependently inhibited
same,phosphorus concentration of the culture medium (in words),BASMC,reduced
O=P(O)(O)OC(CO)CO [β-glycerophosphate],EC50,"[2]; BASMC, initial concentration of β-glycerophosphate in medium, read-out: concentration giving half-maximal calcium deposition",~4000 µM
OPN: full-length human recombinant osteopontin prepared as a His-tagged protein; tested with or without casein kinase II phosphorylation,"inhibition of ectopic calcification, dose relation (in words)",[1]; 0.1 μg/ml to 5.0 μg/ml,dose-dependent
same,time to significantly reduced calcium deposition,[1]; after addition to HSMC,≤ 60 min
same,inhibition of calcification,[1]; by 90 minutes following addition,approximately 50%
same,calcium deposition into HSMC matrix (in words),[1]; non-phosphorylated forms,do not significantly affect
same,HSMC calcification (in words),"[1]; phosphorylated by casein kinase II, 15 nM",able to inhibit HSMC calcification
same,HSMC calcification (in words),[1]; phosphorylated protein dephosphorylated with alkaline phosphatase (ALP),reverses this inhibitory ability
same,calcium deposition into HSMC matrix (in words),[1]; protein phosphorylated by casein kinase II,reduced to basal levels
"fibronectin: bovine fibronectin (TELIOS), RGD-containing extracellular matrix molecule [reference compound]",inhibition of calcium deposition (in words),[2],unable to inhibit calcium deposition
"osteopontin: Rat osteopontin purified from the conditioned medium of rat neonatal smooth muscle cell cultures, >95% pure",alkaline phosphatase activity of BASMC cultures (in words),alkaline phosphatase,did not affect
same,inhibition of BASMC culture calcification,"[2]; 0.5 ug/ml added on day 7 after start of mineralization, read at day 10",50%
same,fold inhibition of calcification versus vehicle,[2]; 0.5 ug/ml in medium,18 fold
same,inhibition of calcification,"[2]; 0.5 μg/ml, 10 days",approximately 90%
same,calcium deposition in cell layer,"[2]; 0.5 ug/ml, no immunodepletion",0.33 ± 0.06 µmol/mg
same,inhibition of calcification (in words),"[2]; 5 μg/ml, 10 days",almost completely inhibited
same,calcification of BASMC (in words),"[2]; 0.05, 0.5 and 5 μg/ml, assessed at 10 days",dose-dependently inhibited
same,dependence of inhibitory effect on mineralization on calcium (in words),"[2]; medium supplemented with increasing calcium, 10 days",calcium dependent
same,calcium deposition in cell layer,[2]; osteopontin solution immunodepleted with anti-osteopontin antibody (OP-199),2.60 ± 0.43 µmol/mg
same,calcium deposition in cell layer,[2]; osteopontin solution treated with normal goat IgG,0.49 ± 0.10 µmol/mg
same,phosphorus concentration of the culture medium (in words),BASMC,did not reduce
vitronectin [reference compound],inhibition of calcium deposition (in words),[2],unable to inhibit calcium deposition
